The values below come from ChEMBL document CHEMBL1201862, “PubChem BioAssay data set” (2004).

Common to all, as to assay: NCI tumour cell line growth inhibition, 48 h
Test [1] concerns Hs-578T.
In test [2] the test system is MDA-MB-231.
The subject of test [3] is SF-268.
Test [4] has as its system XF498.
Test [5] relates to M19-MEL.
The subject of test [6] is DMS-114.
Test [7] has as its system DMS-273.

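Briefly, cells in 96-well plates were exposed to five compound concentrations for 48 h, and endpoints were estimated by linear interpolation. At the GI50, growth is halved.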 Active and inactive are the calls of the source. No stated cut-off is given here; in the data, active = GI50 up to about 1.1 µM and inactive = higher. Where only a bound is given, the exact number is not on record here.

With `COc1ccc2c(c1)C(=O)/C(=C/c1ccccc1)C2`, the GI50 in test [1] is > 100 µM (inactive).

With `C/C(=N\Oc1cc(Cl)ncn1)c1ccccn1`, the GI50 in test [2] was 19.8 µM (inactive); in test [3], 58.2 µM (inactive); in test [1], 32.8 µM (inactive).

`CCOC(=O)c1csc(NC(=O)CCN2CCCC2)n1`: the GI50 in test [2] was > 100 µM (inactive).

On to `CC(=O)OCc1nnn2c1CCC2`, for which the GI50 in test [4] and in test [5] was > 100 µM (inactive) throughout.

`O=C1C=C(C2OC(CO)C(O)C2O)C(=O)N1` (configuration not stated): the GI50 in test [4] is < 0.01 µM (active); in test [6] it was 54.8 µM (inactive); in test [5], > 100 µM (inactive); in test [3], > 100 µM (inactive); in test [7], > 100 µM (inactive).
